In brackets after ≈: the same amount, converted by molar mass.
How the values were obtained:
[1] = tested on: E. coli (ATCC 10798); assay: Sensitization to erythromycin (concentration lowering the MIC of erythromycin), E. coli (ATCC 10798); assay type: cell-based, Escherichia coli; settings: for MIC: concentration required to lower the MIC of erythromycin from 70 μg/mL to 1 μg/mL / MBC (with erythromycin): Table 2, E. coli (ATCC 10798); for MBC (with erythromycin): erythromycin sensitization; for (a) Concentration required to lower the MIC of erythromycin from 70 to 1 μg/mL / (b) MBC with 1 μg/mL erythromycin / FIC values with erythromycin: Table 9, Escherichia coli (ATCC 10798)
[2] = tested on: E. coli (ATCC 25922); assay: MIC and MBC measurement with E. coli (ATCC 25922); assay type: cell-based, Escherichia coli
Procedure, shortened: (§1)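 Bacteria incubated statically 24 h at 37 °C in TSB with graded compound concentrations (erythromycin or novobiocin added 15 min later in sensitization runs). MIC from turbidity at 760 nm; MBC by subculturing clear samples on TSA and comparing CFU/mL to inoculum.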

[3] = tested on: E. coli (ATCC 25922); assay: Sensitization to erythromycin, E. coli (ATCC 25922); assay type: cell-based, Escherichia coli; settings: for MIC: concentration required to lower the MIC of erythromycin from 60 μg/mL to 1 μg/mL / MBC (with erythromycin): Table 5, E. coli (ATCC 25922); for MBC (with erythromycin): erythromycin sensitization; for FIC / concentration required to inhibit bacterial growth with antibiotic: Table 11, Escherichia coli ATCC 25922; for FIC: erythromycin (by order); for concentration required to inhibit bacterial growth with antibiotic: erythromycin (by order) at 0.5, 1.0 or 3.0 μg/mL
Procedure, shortened: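 Bacteria grown in TSB with varied cholic acid derivative concentrations; erythromycin (0.5, 1.0 or 3.0 μg/mL) added 15 min later; stationary incubation 37° C, 24 h. Growth read as absorbance at 760 nm, with clear samples subcultured on TSA for CFU/mL; derivative concentration inhibiting growth determined.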

[4] = tested on: Klebsiella pneumonia ATCC 13883; assay: MIC and MBC measurement with Klebsiella pneumoniae ATCC 13883; assay type: cell-based; settings: Table 10
Procedure, shortened: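 Tube dilution in tryptic soy broth: compound (HCl salt in water) at graded concentrations, stationary incubation at 37° C. for 24 hours, growth read as absorbance at 760 nm. Non-turbid tubes were subcultured on TSA and CFU/mL compared with the original inoculum to define killing.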

[5] = tested on: Staphylococcus aureus ATCC 25923; assay: MIC and MBC measurement with Staphylococcus aureus ATCC 25923; assay type: cell-based; settings: Table 10; Staphylococcus aureus ATCC 25923
Procedure, shortened: as §1

[6] = tested on: Candida albicans ATCC 90028; assay: MIC and MBC measurement with Candida albicans ATCC 90028; assay type: cell-based; settings: Table 10
Source text: General: Microorganisms. Reference strains were purchased from the American Type Culture Collection (Rockville, Md.) or Bactrol disks from Difeo Laboratories (Detroit, Mich.). The following specific ATCC strains were used: 10798 Escherichia coli, 25922 Escherichia coli, 13883 Klebsiella pneumoniae, 27853 Pseudomonas aeruginosa, 14028 Salmonella typhimurium, 29212 Enterococcus faecalis, 25923 Staphylococcus aureus, 19615 Streptococcus pyogenes, and 90028 Candida albicans. Bacterial strains were maintained on Mueller-Hinton agar plates, and Candida albicans was maintained on Sabouraud Dextrose agar plates.
Tryptic soy broth (TSB) was made by dissolving 27.5 grams of tryptic soy broth without dextrose (DIFCO Laboratories) in 1 liter of deionized water and sterilizing at 121° C. for 15 minutes. Solid agar (TSA) plates were made by dissolving 6.4 grams of tryptic soy broth and 12 grams of agar (purified grade, Fischer Scientific) in 800 mL of deionized water and sterilizing at 121° C. for 20 minutes. Aliquots (20 mL) of the homogeneous solution were then poured in sterile plastic petri dishes (100×15 mm, Fisher Scientific). Solutions of compounds were made by dissolving the HCl salt of the respective compound into an appropriate amount of deionized and sterilized water followed by microfiltration.
Aliquots of 1 mL of the suspension were added to test tubes containing 1 mL TSB and incrementally varied concentrations of cholic acid derivatives and/or erythromycin or novobiocin. In the sensitization experiments, erythromycin or novobiocin were added 15 minutes later than the cholic acid derivatives. The samples were subjected to stationary incubation at 37° C. for 24 hours. Sample turbidity was determined by measuring absorption at 760 nm (HP 8453 UV-Visible Chemstation, Hewlett Packard). Additionally, an alliquot from each of the samples showing no measurable turbidity was subcultured on TSA plates (alliquots were diluted to provide fewer than 300 CFU). Colonies that grew on the subculture after overnight incubation were counted and the number of CFU/mL in the samples were calculated. The calculated values were compared to the number of CFU/mL in the original inoculum.

[7] = Procedure: Minimum inhibition concentrations (MIC) and minimum hemolytic concentrations (MHC) were measured as described in Li et al., Antimicrob. Agents. Chemother., 1999, 43, 1347.
[8] = tested on: E. coli containing an inducible luciferase coding plasmid; assay: Luciferin/luciferase-based permeabilization / cell lysis assay; design: species or system Escherichia coli; settings: permeabilization of the outer membrane allowing luciferin to enter the cell
Procedure: Using a technique described by J. M. Shupp, S. E. Travis, L. B. Price, R. F. Shand, P. Keim, RAPID BACTERIAL PERMEABILIZATION REAGENT USEFUL FOR ENZYME ASSAYS, Biotechniques, 1995, vol.
In this assay, E. coli containing an inducible luciferase coding plasmid was incubated with the inducing agent […], then treated with a lysis buffer containing either PMB or one of the cholic acid derivatives, and Triton X-100. Luciferin and ATP were then added. […] The concentrations of the membrane disrupting agents (PMB and the cholic acid derivatives) were varied, and the resulting luminescence was measured.

[9] = Table 10, Escherichia coli ATCC 25922

With `C[C@H](CCCN(C)Cc1ccccc1)[C@H]1CC[C@H]2[C@@H]3[C@H](OCCN)C[C@@H]4C[C@H](OCCN)CC[C@]4(C)[C@H]3C[C@H](OCCN)[C@]12C` [Compound 1] the “MIC: concentration required to lower the MIC of erythromycin from 70 μg/mL to 1 μg/mL” value [1] was 2 µg/mL, the “MBC (with erythromycin)” value [1] was 20 µg/mL and the MBC ([2]; Table 4, E. coli (ATCC 25922)) was 40 µg/mL (≈ 63.8 µM). It also gave an MIC ([2]; Table 4, E. coli (ATCC 25922)) of 25 µg/mL (≈ 39.9 µM), an MBC [2, 9] of 22 µg/mL (≈ 35.1 µM) and an MIC [2, 9] of 22 µg/mL (≈ 35.1 µM). The “MIC: concentration required to lower the MIC of erythromycin from 60 μg/mL to 1 μg/mL” value [3] was 2 µg/mL, the “MBC (with erythromycin)” value [3] was 14 µg/mL and the FIC [3] was 0.15. For the same molecule, the “concentration required to inhibit bacterial growth with antibiotic” value [3] was 2.5 µg/mL, the MBC [4] was over 36 µg/mL and the MIC [4] was 24 µg/mL (≈ 38.3 µM). For the same molecule, the MBC [5] was 5.7 µg/mL (≈ 9.09 µM), the MIC [5] was 3.1 µg/mL (≈ 4.94 µM) and the MBC [6] was over 50 µg/mL. For the same molecule, the MIC [6] was 49 µg/mL (≈ 78.2 µM) and the MHC [7] was 78 µg/mL.

In the case of `C[C@H](CCCN(C)Cc1ccccc1)[C@H]1CC[C@H]2[C@@H]3[C@H](OCCCN)C[C@@H]4C[C@H](OCCCN)CC[C@]4(C)[C@H]3C[C@H](OCCCN)[C@]12C` [Compound 2], the “MIC: concentration required to lower the MIC of erythromycin from 70 μg/mL to 1 μg/mL” value [1] is reported as 1 µg/mL, the “MBC (with erythromycin)” value [1] is reported as 10 µg/mL and the MBC ([2]; Table 4, E. coli (ATCC 25922)) is reported as 20 µg/mL (≈ 29.9 µM). The MIC ([2]; Table 4, E. coli (ATCC 25922)) was 10 µg/mL (≈ 14.9 µM), the MBC [2, 9] was 6.8 µg/mL (≈ 10.2 µM) and the MIC [2, 9] was 5.1 µg/mL (≈ 7.62 µM). For the same molecule, the “MIC: concentration required to lower the MIC of erythromycin from 60 μg/mL to 1 μg/mL” value [3] was 1 µg/mL, the “MBC (with erythromycin)” value [3] was 5 µg/mL and the FIC [3] was 0.078. For the same molecule, the “concentration required to inhibit bacterial growth with antibiotic” value [3] was 0.23 µg/mL, the MBC [4] was 17 µg/mL (≈ 25.4 µM) and the MIC [4] was 14 µg/mL (≈ 20.9 µM). It also gave an MBC [5] of 4.7 µg/mL (≈ 7.02 µM), an MIC [5] of 1.0 µg/mL (≈ 1.49 µM) and an MBC [6] of 42 µg/mL (≈ 62.8 µM). For the same molecule, the MIC [6] was 30 µg/mL (≈ 44.8 µM), the MHC [7] was 58 µg/mL and the half maximum luminescence [8] was 7 µg/mL.

For `C[C@]12CC[C@@H](OCCCN)C[C@H]1C[C@@H](OCCCN)[C@@H]1[C@@H]2C[C@H](OCCCN)[C@]2(C)[C@@H](O)CC[C@@H]12` [Compound 106], the “(a) Concentration required to lower the MIC of erythromycin from 70 to 1 μg/mL” value [1] was 30 µg/mL, the “(b) MBC with 1 μg/mL erythromycin” value [1] was 160 µg/mL and the “FIC values with erythromycin” value [1] was 0.23. The MBC [2, 9] was 90 µg/mL (≈ 182 µM), the MIC [2, 9] was 80 µg/mL (≈ 161 µM) and the FIC [3] was 0.073. For the same molecule, the “concentration required to inhibit bacterial growth with antibiotic” value [3] was 3.2 µg/mL, the MBC [4] was 100 µg/mL (≈ 202 µM) and the MIC [4] was over 100 µg/mL. It also gave an MBC [5] of 54 µg/mL (≈ 109 µM), an MIC [5] of 8.6 µg/mL (≈ 17.3 µM) and an MBC [6] of 92 µg/mL (≈ 186 µM). It also gave an MIC [6] of 75 µg/mL (≈ 151 µM) and an MHC [7] of over 100 µg/mL.

With `CCCOCCC[C@@H](C)[C@H]1CC[C@H]2[C@@H]3[C@H](OCCCN)C[C@@H]4C[C@H](OCCCN)CC[C@]4(C)[C@H]3C[C@H](OCCCN)[C@]12C` [Compound 112] the “(a) Concentration required to lower the MIC of erythromycin from 70 to 1 μg/mL” value [1] was 0.4 µg/mL, the “(b) MBC with 1 μg/mL erythromycin” value [1] was 4.0 µg/mL and the “FIC values with erythromycin” value [1] was 0.048. For the same molecule, the MBC [2, 9] was 7.4 µg/mL (≈ 12.2 µM), the MIC [2, 9] was 6.6 µg/mL (≈ 10.9 µM) and the FIC [3] was 0.12. The “concentration required to inhibit bacterial growth with antibiotic” value [3] was 0.59 µg/mL, the MBC [4] was 27 µg/mL (≈ 44.4 µM) and the MIC [4] was 23 µg/mL (≈ 37.8 µM). The MBC [5] was 4.2 µg/mL (≈ 6.91 µM), the MIC [5] was 0.55 µg/mL (≈ 0.905 µM) and the MBC [6] was 45 µg/mL (≈ 74 µM). For the same molecule, the MIC [6] was 41 µg/mL (≈ 67.4 µM) and the MHC [7] was 5.9 µg/mL.

Source: patent US7598234B2, “Steroid derived antibiotics” (Brigham Young University, priority 1998, dated 2009)
